# Test results reported in patent publication US20120122870A1, “Treatment Of Ischemia-Reperfusion Injury” (MUSC FOUNDATION FOR RESEARCH DEVELOPMENT, priority 2009, published 2012).
# Entries after “also recorded” stand apart in the source; their conditions may differ.
# Experiments:
# Type in all cases: in vivo, mice
# [1] = tested on: TNFα mRNA; assay: TNFα mRNA by quantitative real time PCR after hepatic warm IR
# Description: ABC294640 prevents hepatic warm IR-induced tumor necrosis factor-α (TNFα) formation and NF-κB activation. Toxic cytokine formation and inflammatory processes play important roles in IR injury, and S1P is well known to promote inflammation. Accordingly, we investigated whether ABC294640 affects the expression of the pro-inflammatory cytokine TNFα after IR. Livers were harvested at 2 h after reperfusion and TNFα mRNA was detected by quantitative real time PCR. TNFα mRNA increased ˜10-fold after IR (FIG. 15, upper). ABC294640 blunted this increase in TNFα mRNA by ˜50%. NF-κB activation is involved in inflammatory cytokine formation and upregulation of adhesion molecules. After IR, phosphorylation of p65 subunit of NF-κB increased markedly, indicating NF-κB activation. This effect was also blunted by ABC294640 (FIG. 15 lower) which is consistent with our previous studies of NF-κB activation. Quantitative real-time PCR (qPCR): Total RNA in liver homogenates was isolated using a QIAGEN RNeasy kit and quantified using a NanoDrop ND-1000 Spectrophotometer. cDNAs of mRNA of interest were generated using the Bio-Rad iScript cDNA Synthesis kit. qPCR was performed on a BioRAD MyiQ single-color real-time PCR detection system. The primers used for each gene were designed using Primer 3 software. […] Data were analyzed with MyiQ software. […]
# [2] = tested on: neutrophil influx into the kidney (MPO activity); assay: Kidney myeloperoxidase (MPO) activity after severe kidney IR; conditions: 50 mg/kg
# Description: Myeloperoxidase (MPO) activity, which is reflective of neutrophil influx into the tissue, is often used as measure of local inflammation, and was assayed in the kidneys of the mice from FIG. 4. […] Therefore, the level of kidney MPO and expected inflammatory damage in vehicle-treated animals correlates with the observed reduction in renal function.
# [3] = tested on: hepatic apoptosis after warm IR; assay: TUNEL apoptosis in liver after hepatic warm IR; conditions: 1 h-ischemia plus 6 h-reperfusion
# Description: ABC294640 prevents hepatic warm IR-induced cell death. SK increased after hepatic IR, therefore, we investigated whether ABC294640 protects against hepatic IR injury. […] Necrotic areas became panlobular after 1 h-ischemia plus 6 h of reperfusion (FIG. 10, middle). Necrotic area, quantified by computerized image analysis of 10 random fields per slide, accounted for 68% of the liver tissue (FIG. 11A). After ABC294640 treatment, necrosis was decreased to 7%, which represents an almost 90% attenuation as compared to the vehicle-treated livers (FIG. 11A). Hepatic apoptosis was evaluated by terminal deoxylnucleotidyl transferase-mediated deoxyuridine triphosphate biotin nick end labeling (TUNEL) (FIG. 11B). TUNEL-positive cells were rare in livers from sham-operated mice (0.13 cells/high power field (hpf)). TUNEL staining increased slightly to 2 cells/hpf after 1 h-ischemia plus 6 h-reperfusion (FIG. 11B). […] The TUNEL assay was performed to assess apoptosis using an In Situ Cell Death Detection Kit (Roche Diagnostics Corp., Indianapolis, Ind.). TUNEL-positive and negative cells were counted in 10 randomly selected fields using a 40× objective lens. Apoptosis was verified morphologically by identifying condensed and fragmented nuclei in 10 randomly selected fields in H+E slides ([…] et al. 1995).
# [4] = tested on: SK expression in the liver; assay: SK immunohistochemistry in liver after hepatic warm IR; conditions: 50 mg/kg gavage 1 h prior to surgery; 1 h-ischemia plus 6 h-reperfusion
# Description: Warm IR upregulates SK in the liver. IR injury to the liver occurs in LT. Since SK is associated with inflammatory processes, we investigated whether IR affects SK expression in the liver. Male C57BL/6 mice (8-9 weeks) were gavaged with ABC294640 (ABC, 50 mg/kg) or an equal volume of vehicle (0.375% Tween-80 in phosphate buffer) 1 h prior to surgery. Under ether anesthesia, hepatic ischemia was induced by clamping the hepatic artery and portal vein to the upper three lobes of the liver (i.e., about 70% of total liver). One hour later, the ischemic liver was reperfused by opening the vascular clamp. Livers were collected 6 h later under pentobarbital anesthesia (80 mg/kg, i.p.) and SK was detected immunohistochemically. […] SK expression increased markedly after hepatic IR (FIG. 9 middle). Upregulation of SK occurred most overtly in hepatocytes in the midzonal regions of the liver lobule. […] Immunohistochemistry: Sections were deparaffinized in xylene, rehydrated in a series of graded alcohol concentrations and placed in phosphate buffered saline with 0.1% Tween-20. […] Appropriate peroxidase-conjugated secondary antibodies (DAKO Corp.) were then applied, followed by 3,3'-diaminobenzidine chromagen as the peroxidase substrate. A light counterstain of Meyer's hematoxylin was applied.
# [5] = tested on: kidney damage after severe ischemia-reperfusion; assay: Kidney histology (H&E) after severe kidney IR; conditions: 4 and 48 hours post ischemia and reperfusion
# Description: Kidneys from the animals described with respect to FIG. 4 were sectioned and stained with H&E for histological evaluation. […] Kidney sections were quantitatively scored on a scale of 1 to 3 for five parameters (tubule cell swelling, tubular dilatation, edema, epithelial necrosis and tubular casts) that were added to generate a total score (FIG. 6).
compound,measurement,setting,value
"O=C(NCc1ccncc1)C12CC3CC(C1)CC(c1ccc(Cl)cc1)(C3)C2 [ABC294640, 3-(4-chlorophenyl)-N-(pyridin-4-ylmethyl)adamantane-1-carboxamide]",TNFα formation after hepatic IR (in words),[1]; livers harvested 2 h after IR,blunts TNFα formation
same,blunting of the increase in TNFα mRNA,[1]; livers harvested 2 h after reperfusion,~50%
same,increase in kidney MPO activity (neutrophil infiltration),[2],reduces neutrophil infiltration; also recorded: completely blocked
same,increase of TUNEL-positive cells,[3],partially blocked
same,upregulation of SK after hepatic IR,[4],prevents upregulation; also recorded: attenuated upregulation
same,kidney histological damage vs vehicle,[5],protects against microscopic damage; also recorded: much less damage
